How the values were obtained:
[1] = system: streptozotocin-induced diabetic rats; test: Animal weight, food and water consumption in streptozotocin-induced diabetic rats; assay type: in vivo, Wistar rat
Experimental: Six female (three for each compound: FC-114 and FC-122) (220 ± 10 g, for the acute toxicity assay) and forty male (215 ± 20 g, for the pharmacologic study) albino Wistar rats were acquired from the Isolation and Animal Facility Unit, Facultad de Estudios Superiores Cuautitlán (FESC), Universidad Nacional Autónoma de México (UNAM). They were kept in standard polypropylene boxes under controlled temperature (24 ± 4 °C) on a 12 h light/dark cycle and provided conventional food (formula 5001, Rat Chow) and purified water ad libitum. […] At the end of the experiment, the animals were taken to the humanitarian endpoint by the intraperitoneal (ip) administration of 75 mg/kg of sodium pentobarbital to perform a necropsy in the bioterium of FESC, UNAM. During the necropsy, blood serum was extracted to quantify glucose, triacylglycerides, cholesterol, and insulin. The study was conducted based on the guidelines of the Declaration of Helsinki and approved by the Institutional Review Board: Internal Committee for the Care and Use of Experimentation Animals (CICUAE, according to the initials in Spanish, C23_02 on March 2023) of the FESC UNAM (Mexico). It complies with the Mexican norm for this matter (NOM-062-ZOO-1999, Technical Specifications for the Production, Care, and Use of Laboratory Animals, SAGARPA), as well as the Guide for the Care and Use of Laboratory Animals of the National Research Council and National Institutes of Health (NIH Publications No. 8023, revised 1978).
(§1) After a week of acclimation, 35 male Wistar rats were given a single intraperitoneal dose of STZ (Sigma Chemical Co. Toluca, Estado de México, Mexico) at a dosage of 45 mg/kg of body weight, after fasting for 12 h overnight with free access to water. To prevent initial drug-induced hypoglycemia mortality, these animals were given a 10% sucrose solution 24 h after administration. STZ was dissolved in 0.1 M of sodium citrate buffer (pH 4.5) and administered in a final volume of 5 mL/kg. A week after STZ injection, diabetes in streptozotocin rats was confirmed by measuring fasting blood glucose (by glucose oxidase method). Animals with a blood glucose (tail vein) above 126 mg/dL were considered diabetic and used for the experiment to create groups 2, 3, 4, 5, 6, and 7 [1, 13]. Blood glucose levels were measured using a glucometer (Accu-Chek Active, Roche, Mannheim, Germany) and reactive strips (Accu-Chek Active Glucose test strips, Roche). The presence of hyperglycemia and insulin level confirmed a model very similar to T2D in humans. For the pharmacological study, the final number of animals was 35 male rats, with 3 rats being sacrificed during the treatment stage. One was administered with FC-114 and two with acarbose. The first rat was damaged during oral glucose administration in the OGTT at week 5, and the other rats had gastrointestinal complications in week 7.
(§2) The diabetic animals in group 2 (untreated) were given 4% v/v aqueous EtOH solution (vehicle of treatments) in a volume of 6.5 mL/kg body weight. The other groups (3–7) received different treatments for 14 days (weeks 5 to 7). […] All of the treatments were at equimolar doses of PIO and adjusted to the weekly weight of each rat. […] The commercial PIO tablet (30 mg) was crushed in 7.5 mL of vehicle and given to each animal in 4.0 mg/mL of suspension. The FC-114 and FC-122 suspensions were created at 6.2 and 6.0 mg/mL, respectively. The commercial acarbose tablet (50 mg) was crushed in 7.5 mL of the vehicle and given to each animal in a suspension of 6.6 mg/mL. Each suspension was used within 2 days of its preparation, and the administration volume was near to 2.5 mL for each rat.

[2] = system: streptozotocin-induced diabetic rats; test: Oral glucose tolerance test in streptozotocin-induced diabetic rats; assay type: in vivo, Wistar rat; set-up: AUC of the OGTT: unit not given here
Experimental: as §1, §2
The OGTT was carried out in weeks 3, 4, 5, 6, and 7. Prior to the OGTT, all animal groups fasted overnight for eight hours with free access to water. Each rat was weighed and then received a 2 g/kg glucose overload orally and blood samples were taken from the tail vein [13, 97]. Glucose levels were measured using a glucometer (Accu-Chek Active, Roche, Mannheim, Germany) at 0, 30, 60, 90, 120, and 180 min after glucose administration. The AUC of the OGTT was calculated using the blood glucose concentration over time and the GraphPad Prism 8.0.1 software package (GraphPad Software; Science Inc., San Diego, CA, USA) was used to compare the effectiveness of the treatments.

[3] = system: streptozotocin-induced diabetic rats; test: Weekly fasting glucose in streptozotocin-induced diabetic rats; assay type: in vivo, Wistar rat; conditions: after 7 and 14 days of treatment (weeks 6 and 7)
Experimental: as §1, §2

[4] = Cytotoxic effect on Human Foreskin fibroblasts (SRB); assay type: cell-based; conditions: HFF-1 cells
Experimental: However, at high concentrations, they can be harmful to cells. For humans, doses less than 100 mg/day are considered safe. […] Therefore, we conducted cytotoxicity assays on Human Foreskin fibroblasts (HFF-1) and an AOT on female Wistar rats to assess their safety.
In a 96-well plate, 7000 cells per well of Human Foreskin fibroblasts (HFF-1) were cultured. […] Untreated cells were also included as a negative control. At the end of the incubation period, the cell contents were precipitated with 50 µL of a 50% aqueous solution of trichloroacetic acid (TCA) at 4 °C for 1 h. The supernatant was discarded and washed 5 times with distilled water. Afterward, the plates were allowed to dry at room temperature. The cell contents were incubated with 100 µL of a 0.04% sulforhodamine B (SRB) solution for 1 h at room temperature. The excess SRB was removed by washing with a 1% aqueous acetic acid solution. […] With the data obtained, the viability of treated cells was calculated by comparing the control without treatment. CC50 value was determined by employing BioStat Pro 5.9.8 software (AnalystSoft Inc., Brandon, FL, USA).

[5] = biological target: α-glucosidase from Rominococcus obeum (Blautia obeum, UniProt A5ZY13); test: Enzymatic kinetics of α-glucosidase inhibition (pNPG substrate); assay type: biochemical
Experimental: The kinetic studies for PTP1B and α-glucosidase were carried out under the same conditions described in the references.

[6] = after 7 days of treatment (weeks 5 to 6)
[7] = Week 5 (day 1 of treatment), oral, glibenclamide 0.6, FC-114 51.3, FC-122 49.1, PIO 30, acarbose 54.3 mg/kg/day
[8] = Week 6 (day 7 of treatment), same doses
[9] = Week 7 (day 14 of treatment), same doses

α-glucosidase from Rominococcus obeum, sequence (A5ZY13 entry or part of it): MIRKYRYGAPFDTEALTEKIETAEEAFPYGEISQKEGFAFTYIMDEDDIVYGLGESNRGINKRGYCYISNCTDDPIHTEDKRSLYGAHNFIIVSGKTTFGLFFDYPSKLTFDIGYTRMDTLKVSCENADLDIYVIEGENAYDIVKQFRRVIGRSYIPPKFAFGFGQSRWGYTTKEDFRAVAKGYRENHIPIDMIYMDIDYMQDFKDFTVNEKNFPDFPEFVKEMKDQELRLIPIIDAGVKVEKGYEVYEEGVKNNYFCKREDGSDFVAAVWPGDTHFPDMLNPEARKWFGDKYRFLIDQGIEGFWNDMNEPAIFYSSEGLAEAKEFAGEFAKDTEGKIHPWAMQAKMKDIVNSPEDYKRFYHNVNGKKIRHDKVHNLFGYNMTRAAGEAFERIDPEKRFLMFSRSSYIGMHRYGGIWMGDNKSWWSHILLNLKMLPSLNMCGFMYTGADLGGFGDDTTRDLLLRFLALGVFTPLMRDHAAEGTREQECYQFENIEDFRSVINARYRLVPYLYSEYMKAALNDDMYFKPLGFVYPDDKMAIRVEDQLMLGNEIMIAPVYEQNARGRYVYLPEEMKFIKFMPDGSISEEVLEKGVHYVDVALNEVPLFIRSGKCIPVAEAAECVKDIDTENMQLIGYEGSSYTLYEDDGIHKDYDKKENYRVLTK

CC1(C)c2[nH]c3ccc(C(F)(F)F)cc3c2C[C@]2(C)[C@H]3C(=O)C=C4[C@@H]5C[C@@](C)(C(=O)O)CC[C@]5(C)CC[C@@]4(C)[C@]3(C)CC[C@@H]12 [FC-114]
animal weight compared to the untreated group (T2D) ([1]; 14 days of treatment, weeks 5 to 7): difference in weight
food intake [1, 6]: maintained their increased food consumption
food intake ([1]; after 14 days of treatment (weeks 6 to 7)): tended to decrease toward normal levels
AUC of the OGTT [2, 7]: 53,895
AUC of the OGTT [2, 8]: 62,944
AUC of the OGTT [2, 9]: 57,131
fasting glucose levels [3]: halt the continuous increase of glucose levels
CC50 at 48 h [4]: 59.5 ± 3 µM
α-glucosidase inhibitory activity ([5]; range of concentrations tested): not active

Cc1ccc(-n2ncc3c2C(C)(C)[C@@H]2CC[C@]4(C)[C@H](C(=O)C=C5[C@@H]6C[C@@](C)(C(=O)O)CC[C@]6(C)CC[C@]54C)[C@@]2(C)C3)cc1 [FC-122]
food intake [1, 6]: reduced food intake to near-normal levels
water consumption ([1]; after 14 days of administration): decreased water consumption compared to acarbose and FC-114
AUC of the OGTT [2, 7]: 58,941
AUC of the OGTT [2, 8]: 57,003
AUC of the OGTT [2, 9]: 53,076
glucose blood levels in OGTT compared to untreated animals ([2]; after 14 days of administration, ANOVA/Bonferroni): ranked third
fasting glucose levels [3]: halt the continuous increase of glucose levels
CC50 at 48 h ([4]; HFF-1 human foreskin fibroblasts): 68.4 ± 1 µM
Inhibition type (α-glucosidase) ([5]; Lineweaver-Burk plots): linear-mixed type
Ki ([5]; substrate pNPG, Lineweaver-Burk): 5.2 µM
fold better potency than acarbose (Ki) ([5]; vs acarbose): ~ 5 fold
